For 12 compounds, IC50 results are on record in patent US6025378A, “Bicyclic heterocyclic compounds” (Bayer Aktiengesellschaft, priority 1995, dated 2000).

Read-outs that look alike come from different tables or passages of the source.

For orientation: IC50 means the concentration that inhibits the measured activity by half.

This assay relates to ApoB-100-associated lipoproteins released from HepG2 cells. The assay is described as follows: Inhibition of the release of ApoB-100-associated lipoproteins from cultured hepatic HepG2 cells (immunoassay for human LDL). The assay is classed as cell-based. The note with it: culture supernatant, absorption at 450 nm inhibited by 50% vs solvent control, read-out: Apo B IC50. Here is the method: 1. Inhibition of the Release of ApoB-100-associated Lipoproteins
The test for detection of the inhibition of the release of ApoB-100-associated lipoproteins from hepatic cells was carried out in vitro with cultured hepatic cells, preferably with cells of the human line HepG2. These cells are cultured under standard conditions in medium for culture of eukaryotic cells, preferably in RPMI 1640 with 10% foetal calf serum. HepG2 cells synthesize and secrete into the culture supernatant ApoB-100-associated lipoprotein particles, which are in principle built up similarly to the VLDL and LDL particles which are to be found in plasma.
These particles can be detected with an immunoassay for human LDL. This immunoassay is carried out with antibodies which have been induced against human LDL in rabbits under standard conditions. The anti-LDL antibodies (rab-anti-LDL-Ab) were purified by affinity chromatography on an immunosorbent with human LDL. These purified rab-anti-LDL-Ab are adsorbed onto the surface of plastic. This adsorption is expediently carried out on the plastic surface of microtiter plates with 96 wells, preferably on MaxiSorp plates. If ApoB-100-associated particles are present in the supernatant of Hep-G2 cells, these can bond to the insolubilized rab-anti-LDL-Ab, and an immune complex bonded to the plastic surface is formed. Non-bonded proteins are removed by washing The immune complex on the plastic source is detected with monoclonal antibodies, which have been induced against human LDL and purified under standard conditions. These antibodies were conjugated with the enzyme peroxidase. Peroxidase converts the colourless substrate TMB into a coloured product in the presence of H2 O2. After acidification of the reaction mixture with H2 SO4, the specific absorption of light is determined at 450 nm, this being a measure of the amount of ApoB-100-associated particles wich had been secreted by the HepG2 cells into the culture supernatant.
The IC50 value indicates the concentration of substance at which the absorption of light is inhibited by 50% compared with the control (solvent control without the substance).

[1] abbreviates: Homo sapiens, HepG2, HepG2 cells.

Turning to `O=C(N[C@@H](CO)c1ccccc1)C(c1ccc(CN2C(=O)CSc3ccccc32)cc1)C1CCCCCC1` (stereo partly drawn) [Example 59], under setting [1], the half-inhibitory concentration (IC50) is 29.2 nM.

As for `O=C(N[C@@H](CO)c1ccccc1)C(c1ccc(CN2C(=O)c3ccccc3C2=O)cc1)C1CCCCCC1` (stereo partly drawn) [Example 60], under “HepG2 cells”, the IC50 came out at 9.7 nM.

In the case of `O=C(N[C@@H](CO)c1ccccc1)C(c1ccc(CN2C(=O)c3ccccc3C2=O)cc1)C1CCCCCC1` (stereo partly drawn) [Example 61], the IC50 (HepG2 cells) came to 38.9 nM.

On to `O=C(N[C@@H](CO)c1ccccc1)C(c1ccc(CN2C(=O)c3ccccc3C2=O)cc1)C1CCCCCC1` (stereo partly drawn) [Example 62], for which, where the note is “HepG2 cells”, the concentration for half-maximal inhibition (IC50) is 123 nM.

With `O=C(N[C@@H](CO)c1ccccc1)C(c1ccc(CN2C(=O)c3ccncc3C2=O)cc1)C1CCCCCC1` (stereo partly drawn) [Example 63], the IC50 under setting [1] was 5.9 nM.

Regarding `CCc1nc2ccccc2c(=O)n1Cc1ccc(C(C(=O)N[C@@H](CO)c2ccccc2)C2CCCC2)cc1` (stereo partly drawn) [Example 67], for the setting “HepG2 cells”, the IC50 worked out at 27.4 nM.

Turning to `CCc1nc2ccccc2c(=O)n1Cc1ccc(C(C(=O)N[C@@H](CO)c2ccccc2)C2CCCC2)cc1` (stereo partly drawn) [Example 68], where the note is “HepG2 cells”, the IC50 came to 70.6 nM.

With `O=C(N[C@@H](CO)c1ccccc1)C(c1ccc(Cn2ncc3ccccc3c2=O)cc1)C1CCCCCC1` (stereo partly drawn) [Example 70], under setting [1], the 50% inhibitory concentration (IC50) turned out to be 58.8 nM.

Turning to `CCCCc1nn(Cc2ccc(C(C(=O)N[C@@H](CO)c3ccccc3)C3CCCC3)cc2)c(=O)c2ccccc12` (stereo partly drawn) [Example 73], the IC50 under setting [1] came to 29.4 nM.

`O=C(N[C@@H](CO)c1ccccc1)C(c1ccc(Cn2nc(-c3ccc(Cl)cc3)c3ccccc3c2=O)cc1)C1CCCC1` (stereo partly drawn) [Example 76]: the IC50 (HepG2 cells) worked out at 37.2 nM.

Turning to `O=C(N[C@@H](CO)c1ccccc1)C(c1ccc(Cn2nc(-c3ccc(Cl)cc3)c3ccccc3c2=O)cc1)C1CCCC1` (stereo partly drawn) [Example 77], under “HepG2 cells”, the IC50 stood at 14.9 nM.

Take `O=C(N[C@@H](CO)c1ccccc1)C(c1ccc(Cn2nc(-c3ccc(Cl)cc3)c3ccccc3c2=O)cc1)C1CCCC1` (stereo partly drawn) [Example 78]: for the setting “HepG2 cells”, the IC50 was determined as 279 nM.
